In the experiment the target is T1, MET (cMet) (Homo sapiens, UniProt P08581).
T1 construct: purchased Thermo Fisher Scientific (Life Technologies) SelectScreen
The experiment can be described thus: SelectScreen Z'LYTE. It is filed as biochemical. The method, boiled down:
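NU5455 was profiled across the SelectScreen Broad panel of kinase activity and binding assays. Z'LYTE reactions such as CSF1R ran at apparent Km ATP, while the Adapta CAMK1 assay used ATP listed as 10. Values are given as percent.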

Each structure is given as a SMILES string.

T1 sequence (P08581 25-1390): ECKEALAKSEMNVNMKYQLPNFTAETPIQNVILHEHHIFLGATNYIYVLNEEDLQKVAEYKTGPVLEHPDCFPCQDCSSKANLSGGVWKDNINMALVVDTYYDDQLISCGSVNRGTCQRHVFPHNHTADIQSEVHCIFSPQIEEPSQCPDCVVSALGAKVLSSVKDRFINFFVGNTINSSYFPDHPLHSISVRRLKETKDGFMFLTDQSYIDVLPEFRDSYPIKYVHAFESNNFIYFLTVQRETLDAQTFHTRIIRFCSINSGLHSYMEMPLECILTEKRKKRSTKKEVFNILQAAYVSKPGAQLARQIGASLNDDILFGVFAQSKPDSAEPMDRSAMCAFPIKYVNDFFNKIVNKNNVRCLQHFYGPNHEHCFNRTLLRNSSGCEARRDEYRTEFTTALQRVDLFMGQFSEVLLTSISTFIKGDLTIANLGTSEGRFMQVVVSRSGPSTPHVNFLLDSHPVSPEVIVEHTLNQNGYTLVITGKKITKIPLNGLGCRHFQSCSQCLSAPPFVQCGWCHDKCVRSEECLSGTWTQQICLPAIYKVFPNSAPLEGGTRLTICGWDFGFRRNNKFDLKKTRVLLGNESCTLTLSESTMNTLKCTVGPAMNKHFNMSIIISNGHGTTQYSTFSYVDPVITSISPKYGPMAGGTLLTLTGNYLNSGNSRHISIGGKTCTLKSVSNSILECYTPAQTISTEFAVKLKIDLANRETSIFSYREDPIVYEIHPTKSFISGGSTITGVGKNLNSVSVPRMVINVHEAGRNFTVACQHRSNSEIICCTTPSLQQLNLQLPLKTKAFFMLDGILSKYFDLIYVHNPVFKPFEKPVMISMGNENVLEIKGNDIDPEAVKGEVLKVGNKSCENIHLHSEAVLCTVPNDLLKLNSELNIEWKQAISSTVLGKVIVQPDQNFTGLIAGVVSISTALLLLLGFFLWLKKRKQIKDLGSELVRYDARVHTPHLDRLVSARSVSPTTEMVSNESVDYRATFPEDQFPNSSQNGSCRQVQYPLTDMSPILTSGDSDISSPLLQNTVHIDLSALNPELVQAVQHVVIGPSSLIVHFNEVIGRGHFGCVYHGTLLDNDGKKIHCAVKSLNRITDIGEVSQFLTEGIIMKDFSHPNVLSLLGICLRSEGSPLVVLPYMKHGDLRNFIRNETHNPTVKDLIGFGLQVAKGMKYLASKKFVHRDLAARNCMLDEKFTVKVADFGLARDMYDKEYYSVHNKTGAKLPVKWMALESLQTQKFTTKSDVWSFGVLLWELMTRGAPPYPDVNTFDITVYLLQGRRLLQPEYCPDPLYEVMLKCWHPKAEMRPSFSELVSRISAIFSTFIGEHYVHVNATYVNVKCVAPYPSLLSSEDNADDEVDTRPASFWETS

The term inhibition denotes the relative decrease from the control value, in per cent. `CN(C(=O)CN1CCOCC1)c1ccc2sc3c(-c4cccc5c(=O)cc(N6CC7CCC(C6)O7)oc45)cccc3c2c1` [NU5455]: the inhibition at 1 µM is -15.1%.

Values taken from PMC6934184, “Selective DNA-PKcs inhibition extends the therapeutic index of localized radiotherapy and chemotherapy” (The Journal of Clinical Investigation, 2019).
